Test results taken from paper PMC7215935, “GM1 Oligosaccharide Crosses the Human Blood–Brain Barrier In Vitro by a Paracellular Route” (International Journal of Molecular Sciences, 2020).

What was measured:
[1] = test system: P-gp/BCRP; test: ABC transporter competition assay (Caco-2 pump out), R123 efflux; settings: Caco-2 cells, 10, 50 and 100 μM, vs control
Experimental: (§1) Briefly, Caco-2 cells in 96-well plates were washed once with RH buffer and incubated for 120 min with 10 µM R123 or for 15 min with 0.5 µM CMFDA. R123 and CMFD are substrates for the major efflux pumps expressed by BBB and intestine cells, i.e., P-gp/BCRP and MRPs, respectively. After the incubation period, Caco-2 cells were washed twice with RH buffer with or without test compounds (OligoGM1 at 10, 50, and 100 µM). The rate out (Kout) of Caco-2 cells for fluorescent dyes was monitored by fluorescence measurement (λex = 501 nm and λem = 538 nm for R123; λex = 485 nm and λem = 538 nm for CMFDA) using a microplate fluorescent reader (BioTek, H1, Vermont, Winooski). The amount of dye expelled from the cells was measured at 37 °C and every 5 min for one hour for R123 and every 2 min for 30 min for CMFDA. The rate out of the dye from cells was calculated as the slope of the curve of the cumulative amount of dye against the time (Kout = ∆pmol⁄∆t) and compared with the value in the presence of test compounds.

[2] = test system: human brain-like endothelial cells (hBLECs); test: Direct transport (apical to basolateral, A → B) across the hBLEC monolayer: Pe and Papp; assay type: in vitro ADME; settings: 300 μM apical, after 240 min
[3] = test system: MRPs; test: ABC transporter competition assay (Caco-2 pump out), CMFDA efflux; settings: Caco-2 cells, 10, 50 and 100 μM, vs control
Experimental: as §1

[4] = test system: hBLECs; test: Toxicity on hBLECs / monolayer integrity by LY permeability in combination with test substance; assay type: cell-based, human; settings: 10, 50, 100 and 300 μM with 50 μM LY, 60 min and over time (20, 40, 60 min)
Experimental: Prior to the experiments, in order to verify the hBLECs’ monolayer integrity and stability, the permeability parameters were verified as previously reported. Briefly, 1.5 mL Ringer–Hepes solution (RH) (150 mM NaCl, 5.2 mM KCl, 2.2 mM CaCl2, 0.2 mM MgCl26H2O, 6 mM NaHCO3, 5 mM HEPES, pH: 7.4) was added to empty wells of a 12-well plate. Filter insert containing confluent monolayers of hBLECs or not (control) were subsequently placed in the 12-well plate, filled with 0.5 mL RH buffer containing the fluorescent integrity marker LY (50 μM), and then placed on an orbital shaker (150 rpm, Heidolph Titramax 100) at 37 °C in a humidify atmosphere of 95% air/5% CO2. Every 20 min for 1 h, filter inserts were withdrawn from the receiver compartment and placed in the next one. To verify the quantity of LY, at the end of the experiments, aliquots from the donor solution were taken at the end of the experiments and the fluorescence was quantified using a quantification curve of LY as referee. At least three inserts with cells and three without cells were tested in each permeability measurement. The fluorescence was measured using a luminescence spectrometer (LS 50B, Perkin Elmer), using the following excitation/emission wavelength (nm) settings: 432/538. Pe parameters were calculated according to the formulas shown in the Supplementary Information (Equations (7)–(10)). In parallel, as positive control for breakdown of hBLECs, D-mannitol, was used at a concentration of 1.4 M. At this concentration, mannitol induces an osmotic shock, and thus an increase in paracellular permeability.
To evaluate the toxicity of GM1 and OligoGM1, the LY endothelial permeability (Pe) and apparent permeability (Papp) were considered for evaluation of hBLEC monolayer integrity after administration of compounds.
To examine the LY permeability, 1.5 mL of RH buffer was added to empty wells of a 12-well plate, then hBLEC filters were placed in the 12-well plate and filled with 0.5 mL RH buffer containing 50 μΜ LY plus OligoGM1 or GM1 at an appropriate test concentration (from 5 to 300 μΜ). The hBLEC inserts were moved every 20 min to a new RH-filled well up to 60 min. At the end of the incubation period, solutions were collected from apical and basolateral compartments, LY was quantified, and Papp was calculated as reported in the Supplementary Information (Equation (1)) and previously mentioned.

[5] = Inverse transport (basolateral to apical, B → A) across hBLECs and efflux ratio; assay type: in vitro ADME, human; settings: human, pH 7.4; 50 μM in basolateral compartment, 60 min (Figure 7)
Experimental: For the inverse transport study (related to basolateral → apical flux, B → A), 1.5 mL of 1 × 10^6 dpm of tritiated [^3H]OligoGM1 plus 50 μM OligoGM1 in RH buffer were added to an empty well of a 12-well plate (Figure S3c). Every 20 min up to 60 min, the hBLEC filter filled with 0.5 mL RH buffer was removed and replaced with a new filter with fresh RH buffer.
The apparent permeability, efflux ratio, and endothelial permeability were calculated to estimate the absorption processes of drugs, to predict implication of active transport in the process of drugs absorption, and to more accurately appreciate the transport of a drug across an endothelial barrier, respectively. Detailed information on the equations used to calculate the permeability parameters are reported in the Supplementary Information. […]
where (∆Q/∆t) (μmol/sec) is the rate of permeation (quantity per second) of a molecule across the cell layer, C0 (μmol/cm3) is the donor compartment concentration at time zero and S (cm2) is the area of […]
In the transwell insert system there are two compartments and, analyzing the absorption of a substance, the apparent permeability index can be obtained for the apical to basolateral transport, Papp A → B, and for the inverse, basolateral to apical transport Papp B → A.
To define Papp (1), the Fick's law could be used, which describes the transport of substances through a semipermeable membrane. Given that the initial concentration of the solute in the donor compartment is much higher than the one in the receiver compartment (equal to 0 at t0), and assuming that the solute equally partitions in the two compartments, for small variation of C0, it is possible to integrate and simplify the Fick’s equation to obtain as follows: […]
where ∆Q/∆t corresponds to the amount of solute that crosses the membrane over time, D is the diffusion coefficient of the substance in water, S is the membrane surface, h its thickness and C0 is the concentration of the solute which approximates the initial concentration C0.
The equation (2) can be rewritten as: […]

CC(=O)NC1C(O)CC(OC2C(O)C(OC3C(CO)OC(O)C(O)C3O)OC(CO)C2OC2OC(CO)C(O)C(OC3OC(CO)C(O)C(O)C3O)C2NC(C)=O)(C(=O)O)OC1C(O)C(O)CO (stereo not drawn) [OligoGM1, β-Gal-(1-3)-β-GalNAc-(1-4)-[α-Neu5Ac-(2-3)]-β-Gal-(1-4)-β-Glc]
effect on efflux (Kout) of R123 [1]: did not identify any difference | concentration in receiving compartment [2]: ~ 25 μM | share of administered amount in receiving compartment ([2]; Transfectagro medium): 25% | effect on efflux (Kout) of CMFDA [3]: did not identify any difference | effect on LY Pe and Papp (toxicity to hBLECs) [4]: no variations of LY Pe and Papp were observed | Papp B→A at 60 min, 50 μM [5]: 8.7 ± 1.4 ×10⁻⁶ cm/s
